For one experiment, the system named is S. aureus. Kind of experiment: Specific and nonspecific cleavage in human serum with/without MN, read out by S. aureus culture in the supernatant. Type of experiment: cell-based. The conditions noted are these: PEGDMA-Oligo-Gentamicin hydrogel incubated 2 h in human serum with/without MN. As to the method:
The data also support faster oligo cleavage by MN than by other nucleases present in the human serum.
Briefly, the PEGDMA-Oligo-Gentamicin hydrogel (50 μL, 8 mm in diameter, n=3) was immersed in 0.25 mL of human serum with or without MN (0.1 U/mL) and incubated at 37° C. for 2 h. The hydrogel was then removed while 0.25 mL of LB media containing 250 CFU S. aureus was added. The culture of S. aureus was incubated for 24 h at 37° C. with shaking.

For experiment [1], the target named is T1, micrococcal nuclease (MN) (Staphylococcus aureus, UniProt P00644).
T1 construct: purchased Worthington Biochemical Corporation; host or cells: S. aureus strain ATCC #27735
Nature of the experiment: Enzymatic oligo digestion by micrococcal nuclease monitored by GPC. The experiment is classed as biochemical, S. aureus. An excerpt: The cleavage of the oligo probe (synthesized and purified by Integrated DNA Technologies) by MN (source: S. aureus strain ATCC #27735; Worthington Biochemical Corporation) was first validated prior to its conjugation with vancomycin or PEGDMA hydrogel.
The digestion of the methacrylated oligo by micrococcal nuclease (MN, 0.1-1.0 U/μL) was monitored by aqueous gel permeation chromatography (GPC) on a Varian ProStar HPLC system with two PL Aquagel-OH columns (Agilent Technologies) and a UV detector. The eluent was aqueous PBS (10 mM, pH 7.4) and the flow rate was 1.0 mL/min. Detection of the oligo probe and its fragments upon digestion was enabled by UV absorbance at 260 nm. Extinction coefficient of 2′-O-methyl-modified nucleotides was assumed to be the same as that of RNA. All measurements were performed in triplicates.

As for “/5Carboxyl/*mC*mG*TT*mC*mG*/3Acryd/ [6 PS]”, the “total CFU count of S. aureus after 24-h culture in supernatant” value (“total CFU count of S. aureus” below) in the experiment with S. aureus was “increased accordingly”.
“/5Carboxyl/*mC*mGTTmC*mG*/3Acryd/ [4 PS]”: the “total CFU count of S. aureus” value in the experiment with S. aureus is on record as “increased accordingly”.
For “/5Carboxyl/mCmGTTmCmG/3Acryd/ [0 PS oligo]”, the “total CFU count of S. aureus” value with S. aureus is “least or no CFU count”. Further, in experiment [1] (MN 0.1 U/μL, PBS pH 7.4 10 mM, physiological concentration of calcium ions), the “cleavage of the oligo by MN (fragments by GPC, UV 260 nm)” value was “two fragments”. Further, the “cleavage of the oligo by MN” value in experiment [1] (absence of calcium ions) is given as “very little cleavage”.
